Assays:
[1] = logP determination by HPLC (EEC directive 79/831 Annex V. A8); format: physicochemical; settings: pH = 2; HPLC gradient method, acetonitrile/0.1% aqueous phosphoric acid
Procedure: [logP=the logP values were determined in accordance with EEC directive 79/831 Annex V. A8 by HPLC (gradient method, acetonitrile/0.1% aqueous phosphoric acid)]

[2] = system: peach aphid (Myzus persicae); test: Myzus Test; format: in vivo; settings: active compound concentration of 0.1%; after 6 days; cabbage leaves dipped
Procedure: (§1) Solvent: 7 parts by weight of dimethylformamide
(§2) Emulsifier: 1 part by weight of alkylaryl polyglycol ether
To produce a suitable preparation of active compound, 1 part by weight of active ingredient is mixed with the stated amount of solvent and the stated amount of emulsifier, and the concentrate is diluted with water to the desired concentration.
Cabbage leaves (Brassica oleracea) which are heavily infested by the peach aphid (Myzus persicae) are treated by being dipped into the preparation of active compound of the desired concentration.
After the desired period of time, the kill in % is determined. 100% means that all aphids have been killed; 0% means that none of the aphids have been killed.

[3] = system: mustard beetle larvae (Phaedon cochleariae); test: Phaedon Larvae Test; format: in vivo; settings: active compound concentration of 0.1%; after 7 days; cabbage leaves dipped
Procedure: as §1, §2
To produce a suitable preparation of active compound, 1 part by weight of active compound is mixed with the stated amount of solvent and the stated amount of emulsifier, and the concentrate is diluted with water to the desired concentration.
Cabbage leaves (Brassica oleracea) are treated by being dipped into the preparation of active compound of the desired concentration and are populated with mustard beetle larvae (Phaedon cochleariae) while the leaves are still moist.
After the desired period of time, the kill in % is determined. 100% means that all beetle larvae have been killed; 0% means that none of the beetle larvae have been killed.

CCCOCN1COCN(Cc2cnc(Cl)s2)C1=N[N+](=O)[O-] [Example 1, 3-(2-chloro-thiazol-5-yl-methyl)-4-nitroimino-5-n-propoxymethyl-perhydro-1,3,5-oxadiazine]
chromatographic logP [1]: 1.7 | kill [2]: 100% | kill [3]: 100%
